Results: ChEMBL document CHEMBL5360655, “Design, Synthesis, and Biological Evaluation of Novel P2X7 Receptor Antagonists for the Treatment of Septic Acute Kidney Injury” (J Med Chem, 2023)
Active and inactive are the calls of the source. The calls are words filed in the database; no cut-off is given here.

Experiments:
[1] = molecular target: Voltage-gated inwardly rectifying potassium channel KCNH2 (Homo sapiens, UniProt Q12809); assay: Inhibition of hERG expressed in CHO cells; type: toxicity, cell-based
[2] = AUC(0 to t) in BALB/c mouse at 10 mg/kg, po measured for 24 hrs by LC-MS/MS analysis; type: ADME, organism-based; parameters: time 24 hrs, dose 10 mg/kg, route po; conditions: in vivo
P2X purinoceptor 7 [3] = molecular target: T1, P2X purinoceptor 7 (Homo sapiens, UniProt Q99572); assay: Antagonist activity at P2X7 receptor in human THP-1 cells assessed as inhibition of ATP-induced IL-1beta secretion pretreated with LPS for 3 hrs followed by incubation with compound for 40 mins followed by treatment with ATP for 1 hr by ELISA; type: cell-based
T1 sequence (Q99572 whole entry): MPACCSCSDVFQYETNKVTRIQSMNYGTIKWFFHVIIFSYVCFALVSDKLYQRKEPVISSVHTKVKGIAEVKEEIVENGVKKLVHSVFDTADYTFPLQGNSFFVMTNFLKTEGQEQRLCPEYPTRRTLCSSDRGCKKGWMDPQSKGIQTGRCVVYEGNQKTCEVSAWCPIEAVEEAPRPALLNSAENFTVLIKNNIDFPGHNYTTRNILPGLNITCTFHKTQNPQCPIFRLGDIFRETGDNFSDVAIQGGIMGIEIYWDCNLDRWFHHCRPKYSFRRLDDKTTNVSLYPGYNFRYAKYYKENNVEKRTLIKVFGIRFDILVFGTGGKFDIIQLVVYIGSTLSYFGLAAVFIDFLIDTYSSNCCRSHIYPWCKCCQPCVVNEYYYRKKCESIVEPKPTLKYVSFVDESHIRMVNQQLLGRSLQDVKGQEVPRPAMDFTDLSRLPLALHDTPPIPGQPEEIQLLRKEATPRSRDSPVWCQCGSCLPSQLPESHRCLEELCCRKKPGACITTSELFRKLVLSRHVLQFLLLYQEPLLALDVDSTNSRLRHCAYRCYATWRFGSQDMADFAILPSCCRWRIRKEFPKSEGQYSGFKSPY

Cytochrome P450 3A4 = Cytochrome P450 3A4 (Homo sapiens, UniProt P08684); assay: Inhibition of CYP3A4 in human liver microsomes using midazolam as substrate upto 100 uM incubated for 10 mins in presence of NADPH by LC-MS/MS analysis; type: ADME, Microsome
Mus musculus [4] = assay: (§1) Reno-protective activity against CLP-induced acute kidney injury C57BL/6J mouse model assessed as decrease in KIM1 mRNA expression in kidney at 20 mg/kg, ip administered twice at 30 mins prior to CLP operation and 8 hrs post-CLP operation and measured at 16 hrs post-CLP operation by RT-qPCR analysis; type: functional, organism-based; conditions: time 16.5 hrs
Mus musculus [5] = assay: Reno-protective activity against CLP-induced acute kidney injury C57BL/6J mouse model assessed as decrease in BUN level at 20 mg/kg, ip administered twice at 30 mins prior to CLP operation and 8 hrs post-CLP operation and measured at 16 hrs post-CLP operation; type: functional, organism-based; conditions: time 16.5 hrs
[6] = AUC(0 to t) in BALB/c mouse at 10 mg/kg, ip measured for 24 hrs by LC-MS/MS analysis; type: ADME, organism-based; parameters: dose 10 mg/kg, time 24 hrs, route ip; conditions: in vivo
[7] = Toxicity in C57BL/6J mouse assessed as pathological changes in kidney at 20 mg/kg, ip administered twice at 0 hrs and 8 hrs and measured after 16 hrs by Hematoxylin-Eosin staining based analysis; type: organism-based; conditions: in vivo
Mus musculus [8] = assay: as §1, with “caspase-1” for “KIM1”; type: functional, organism-based; conditions: time 16.5 hrs
Mus musculus [9] = assay: Reno-protective activity against LPS-induced acute kidney injury C57BL/6J mouse model assessed as decrease in serum […] level at 10 mg/kg, ip administered twice at 30 mins prior to LPS challenge and 8 hrs post-LPS challenge and measured at 16 hrs post-LPS challenge; type: functional, organism-based; conditions: time 16.5 hrs
Mus musculus [10] = assay: as §1, with “NLRP3 protein” for “KIM1 mRNA”, “western blot” for “RT-qPCR”; type: functional, organism-based; conditions: time 16.5 hrs
Mus musculus [11] = assay: as §1, with “cleaved IL-1 beta protein” for “KIM1 mRNA”, “western blot” for “RT-qPCR”; type: functional, organism-based; conditions: time 16.5 hrs
THP-1 = assay: Inhibition of ATP-induced mitochondrial damage in human THP-1 cells at […] pretreated with compound for 3 hrs in presence of LPS followed by incubation with ATP for 1 hr by MitoTracker dye based fluorescence analysis; type: functional, cell-based; conditions: dose 2.5 µM, time 4.0 hrs
P2X purinoceptor 7 [12] = molecular target: T2, P2X purinoceptor 7 (Mus musculus, UniProt Q9Z1M0); assay: Antagonist activity at mouse P2X7 receptor expressed in HEK293 cells assessed as inhibition of ATP-induced receptor pore formation by propidium iodide dye uptake based fluorescence analysis; type: cell-based
T2 sequence (Q9Z1M0 whole entry): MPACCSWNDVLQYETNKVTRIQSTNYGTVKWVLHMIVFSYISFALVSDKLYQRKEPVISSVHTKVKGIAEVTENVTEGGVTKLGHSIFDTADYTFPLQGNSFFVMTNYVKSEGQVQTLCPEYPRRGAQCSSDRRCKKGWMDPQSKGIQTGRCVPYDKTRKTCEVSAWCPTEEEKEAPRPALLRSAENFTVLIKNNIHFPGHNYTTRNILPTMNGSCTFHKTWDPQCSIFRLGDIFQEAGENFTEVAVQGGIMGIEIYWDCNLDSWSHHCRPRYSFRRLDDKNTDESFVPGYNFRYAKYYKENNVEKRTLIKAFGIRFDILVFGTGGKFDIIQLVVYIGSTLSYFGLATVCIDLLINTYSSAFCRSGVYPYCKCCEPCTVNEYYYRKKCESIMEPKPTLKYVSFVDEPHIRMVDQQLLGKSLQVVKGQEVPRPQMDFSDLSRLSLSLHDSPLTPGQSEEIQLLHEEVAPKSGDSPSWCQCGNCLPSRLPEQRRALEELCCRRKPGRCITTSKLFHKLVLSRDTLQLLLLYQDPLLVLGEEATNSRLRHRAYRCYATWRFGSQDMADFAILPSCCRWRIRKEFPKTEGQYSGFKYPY

[13] = Toxicity in C57BL/6J mouse assessed as pathological changes in liver at 20 mg/kg, ip administered twice at 0 hrs and 8 hrs and measured after 16 hrs by Hematoxylin-Eosin staining based analysis; type: organism-based; conditions: in vivo
Mus musculus [14] = assay: Reno-protective activity against LPS-induced acute kidney injury C57BL/6J mouse model assessed as decrease in serum […] level at 5 to 20 mg/kg, ip administered twice at 30 mins prior to LPS challenge and 8 hrs post-LPS challenge and measured at 16 hrs post-LPS challenge; type: functional, organism-based; conditions: dose 5-20 mg/kg, time 16.5 hrs
[15] = Intrinsic clearance in human liver microsomes; type: ADME, Microsome; conditions: read-out: CLH
P2X purinoceptor 7 [16] = molecular target: T1, P2X purinoceptor 7; assay: Antagonist activity at human P2X7 receptor expressed in HEK293 cells assessed as inhibition of ATP-induced receptor pore formation by propidium iodide dye uptake based fluorescence analysis; type: cell-based
[17] = Tmax in BALB/c mouse at 10 mg/kg, ip measured for 24 hrs by LC-MS/MS analysis; type: ADME, organism-based; conditions: in vivo
HEK293 = assay: Cytotoxicity against human HEK293 cells transfected with mouse P2X7 receptor assessed as effect on cell viability at 1 to 4 uM incubated for 2 hrs by CCK8 assay; type: toxicity, cell-based; conditions: hek293, 2 h, dose 1-4 µM

Cytochrome P450 3A4, sequence (P08684 whole entry): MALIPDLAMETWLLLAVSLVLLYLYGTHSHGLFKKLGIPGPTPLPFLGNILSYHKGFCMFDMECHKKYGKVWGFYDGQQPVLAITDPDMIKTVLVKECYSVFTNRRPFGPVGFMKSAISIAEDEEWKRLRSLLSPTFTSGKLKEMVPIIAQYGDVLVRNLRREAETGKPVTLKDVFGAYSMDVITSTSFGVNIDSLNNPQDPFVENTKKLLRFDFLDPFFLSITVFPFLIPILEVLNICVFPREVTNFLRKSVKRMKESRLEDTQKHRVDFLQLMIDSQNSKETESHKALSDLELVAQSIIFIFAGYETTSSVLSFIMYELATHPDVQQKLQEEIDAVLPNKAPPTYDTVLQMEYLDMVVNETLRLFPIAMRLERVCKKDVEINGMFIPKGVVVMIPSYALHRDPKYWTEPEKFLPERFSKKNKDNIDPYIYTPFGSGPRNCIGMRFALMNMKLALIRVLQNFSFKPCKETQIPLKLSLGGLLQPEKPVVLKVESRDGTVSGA
Voltage-gated inwardly rectifying potassium channel KCNH2, sequence (Q12809 whole entry): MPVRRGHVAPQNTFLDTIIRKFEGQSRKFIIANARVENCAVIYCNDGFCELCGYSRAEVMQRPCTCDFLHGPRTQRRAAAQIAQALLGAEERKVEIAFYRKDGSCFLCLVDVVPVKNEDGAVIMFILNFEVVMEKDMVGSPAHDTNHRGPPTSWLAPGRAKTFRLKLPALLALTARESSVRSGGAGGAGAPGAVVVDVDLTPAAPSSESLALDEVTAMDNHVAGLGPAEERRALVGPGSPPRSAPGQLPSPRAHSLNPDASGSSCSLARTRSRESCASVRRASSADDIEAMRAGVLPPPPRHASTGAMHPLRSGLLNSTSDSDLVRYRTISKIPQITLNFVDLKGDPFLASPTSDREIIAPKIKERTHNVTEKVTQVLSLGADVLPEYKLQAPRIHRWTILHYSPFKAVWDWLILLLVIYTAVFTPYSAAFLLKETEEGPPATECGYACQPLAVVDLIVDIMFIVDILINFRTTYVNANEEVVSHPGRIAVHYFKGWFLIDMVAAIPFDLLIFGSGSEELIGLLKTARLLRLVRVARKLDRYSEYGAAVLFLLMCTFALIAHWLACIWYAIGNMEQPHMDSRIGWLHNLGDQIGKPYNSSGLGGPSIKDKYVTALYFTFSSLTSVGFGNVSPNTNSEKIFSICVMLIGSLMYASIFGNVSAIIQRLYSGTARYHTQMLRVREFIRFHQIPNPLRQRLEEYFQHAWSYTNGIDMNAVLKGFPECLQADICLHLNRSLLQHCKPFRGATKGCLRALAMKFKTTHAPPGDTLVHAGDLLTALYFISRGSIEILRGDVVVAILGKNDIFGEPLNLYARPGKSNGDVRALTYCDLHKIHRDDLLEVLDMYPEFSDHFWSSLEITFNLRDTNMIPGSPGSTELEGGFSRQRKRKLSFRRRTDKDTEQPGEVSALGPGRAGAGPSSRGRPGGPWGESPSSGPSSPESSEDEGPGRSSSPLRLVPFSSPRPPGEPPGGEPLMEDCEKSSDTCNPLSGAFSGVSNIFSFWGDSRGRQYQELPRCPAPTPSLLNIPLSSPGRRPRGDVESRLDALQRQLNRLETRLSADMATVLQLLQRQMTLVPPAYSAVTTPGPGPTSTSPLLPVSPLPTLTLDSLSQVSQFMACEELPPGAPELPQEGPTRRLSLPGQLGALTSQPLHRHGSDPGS

With CS(=O)(=O)c1ccc(-c2nc(C(=O)NCc3cn(-c4cc(Br)ccn4)nn3)cs2)cc1 the IC50 [1] was over 30000 nM, the AUC(0-t) at 24 h [2] was 6510 ng·h/mL and the IC50 (P2X purinoceptor 7 [3]) was 327 nM. The “inhibition (INH)” value (Cytochrome P450 3A4) was “Not Active”, the Activity (Mus musculus [4]) was “Active” and the Activity (Mus musculus [5]) was “Active”. The AUC(0-t) at 24 h [6] was 11900 ng·h/mL, the Activity [7] was “Non-Toxic” and the Activity (Mus musculus [8]) was “Active”. For the same compound, the Activity (Mus musculus [9]) was “Active”, the Activity (Mus musculus [10]) was “Active” and the Activity (Mus musculus [11]) was “Active”. For the same compound, the inhibition (THP-1) was “Active”, the IC50 (P2X purinoceptor 7 [12]) was 10.1 nM and the Activity [13] was “Non-Toxic”. The Activity (Mus musculus [14]) was “Dose-Dependent Effect”, the CLint scaled [15] was 16.6 mL/min/kg and the IC50 (P2X purinoceptor 7 [16]) was 64.7 nM. For the same compound, the Tmax [17] was 3 h and the Activity (HEK293) was “Non-Toxic”.
